From patent US5840684A, “Glycopeptide antibiotic derivatives” (Eli Lilly and Company, priority 1995, dated 1998)
≈ marks a conversion by molar mass, not a printed value.

Experiments:
[1] = test system: Staphylococcus aureus S13E; format: cell-based
Description: (§1) The MIC's were determined using a standard broth micro-dilution assay.

[2] = test system: Staphylococcus aureus SA1199B; format: cell-based
Description: as §1

[3] = test system: Entercoccus faecium 180-1; test: broth micro-dilution MIC; format: cell-based
Description: as §1

Entercoccus faecium 276 = test: broth micro-dilution MIC; format: cell-based
Description: as §1

[4] = test system: Staphylococcus aureus 446; test: broth micro-dilution MIC; format: cell-based
Description: as §1

[5] = test system: Staphylococcus aureus 447; test: broth micro-dilution MIC; format: cell-based
Description: as §1

[6] = test system: Staphylococcus aureus 489; test: broth micro-dilution MIC; format: cell-based
Description: as §1

[7] = test system: Staphylococcus aureus 491; test: broth micro-dilution MIC; format: cell-based
Description: as §1

[8] = test system: Staphylococcus aureus SA1199A; test: broth micro-dilution MIC; format: cell-based
Description: as §1

[9] = test system: Staphylococcus aureus SA1199; test: broth micro-dilution MIC; format: cell-based
Description: as §1

[10] = test system: Staphylococcus aureus X400; test: broth micro-dilution MIC; format: cell-based
Description: as §1

[11] = test system: Streptococcus pyogenes C203; test: broth micro-dilution MIC; format: cell-based
Description: as §1

Entercoccus faecium 180 = test: broth micro-dilution MIC; format: cell-based; settings: Entercoccus faecium 180
Description: (§2) The formula I compounds have in vitro and in vivo activity against Gram-positive pathogenic bacteria. The MIC's were determined using a standard broth micro-dilution assay.

[12] = test system: Enterococcus gallinarum 245; test: broth micro-dilution MIC; format: cell-based; settings: Enterococcus gallinarum 245
Description: as §2

[13] = test system: Staphylococcus epidermidis 270; test: broth micro-dilution MIC; format: cell-based
Description: as §2

[14] = test system: Staphylococcus haemolyticus 105; test: broth micro-dilution MIC; format: cell-based
Description: as §2

[15] = test system: Streptococcus pneumoniae P1; test: broth micro-dilution MIC; format: cell-based
Description: as §2

[16] = test system: vancomycin-resistant enterococci; test: broth micro-dilution, mean geometric MIC; format: cell-based, Enterococcus faecium and Enterococcus faecalis; settings: enterococci, 24-hour incubation
[17] = test system: vancomycin-susceptible enterococci; test: broth micro-dilution, mean geometric MIC; format: cell-based, Enterococcus faecium and Enterococcus faecalis; settings: enterococci, 24-hour incubation
Entercoccus faecium 2041 = test: broth micro-dilution MIC; format: cell-based; settings: Entercoccus faecium 2041
Description: as §2

[18] = test system: Staphylococcus haemolyticus 415; test: broth micro-dilution MIC; format: cell-based
Description: as §2

[19] = test system: Staphylococcus aureus X778; test: broth micro-dilution MIC; format: cell-based
Description: as §1

Q: What does the source list for `C=CCOc1ccc(CNC2(C)CC(OC3C(Oc4c5cc6cc4Oc4ccc(cc4Cl)C(OC4CC(C)(N)C(O)C(C)O4)C4NC(=O)C(NC(=O)C6NC(=O)C(CC(N)=O)NC(=O)C(NC(=O)C(CC(C)C)NC)C(O)c6ccc(c(Cl)c6)O5)c5ccc(O)c(c5)-c5c(O)cc(O)cc5C(C(=O)O)NC4=O)OC(CO)C(O)C3O)OC(C)C2O)cc1` (centres unmarked) [Compound 7]?
A: MIC [1]: 2 µg/mL (≈ 1.15 µM); MIC [2]: 1 µg/mL (≈ 0.575 µM); MIC [3]: ≤ 0.06 µg/mL; MIC (Entercoccus faecium 276): 1 µg/mL (≈ 0.575 µM); MIC [4]: 8 µg/mL (≈ 4.6 µM); MIC [5]: 4 µg/mL (≈ 2.3 µM); MIC [6]: 2 µg/mL (≈ 1.15 µM); MIC [7]: 2 µg/mL (≈ 1.15 µM); MIC [8]: ≤ 0.06 µg/mL; MIC [9]: 4 µg/mL (≈ 2.3 µM); MIC [10]: 1 µg/mL (≈ 0.575 µM); MIC [11]: ≤ 0.06 µg/mL; MIC (Entercoccus faecium 180): 2 µg/mL (≈ 1.15 µM); MIC [12]: 0.5 µg/mL (≈ 0.288 µM); MIC [13]: 4 µg/mL (≈ 2.3 µM); MIC [14]: 8 µg/mL (≈ 4.6 µM); MIC [15]: ≤ 0.06 µg/mL; mean geometric MIC, Vancomycin Resistant Strains [16]: 2.8 µg/mL; mean geometric MIC, Vancomycin Sensitive Strains [17]: 0.43 µg/mL

Q: What does the source list for `CNC(CC(C)C)C(=O)NC1C(=O)NC(CC(N)=O)C(=O)NC2C(=O)NC3C(=O)NC(C(=O)NC(C(=O)O)c4cc(O)cc(O)c4-c4cc3ccc4O)C(OC3CC(C)(N)C(O)C(C)O3)c3ccc(c(Cl)c3)Oc3cc2cc(c3OC2OC(CO)C(O)C(O)C2OC2CC(C)(NCc3ccc4ccc5cccc6ccc3c4c56)C(O)C(C)O2)Oc2ccc(cc2Cl)C1O` (centres unmarked) [Compound 16]?
A: MIC [1]: 1 µg/mL (≈ 0.553 µM); MIC [2]: 1 µg/mL (≈ 0.553 µM); MIC [3]: 0.125 µg/mL (≈ 0.0692 µM); MIC (Entercoccus faecium 276): 2 µg/mL (≈ 1.11 µM); MIC [4]: 4 µg/mL (≈ 2.21 µM); MIC [5]: 4 µg/mL (≈ 2.21 µM); MIC [6]: 0.5 µg/mL (≈ 0.277 µM); MIC [7]: 1 µg/mL (≈ 0.553 µM); MIC [8]: ≤ 0.06 µg/mL; MIC [9]: 2 µg/mL (≈ 1.11 µM); MIC [10]: 0.5 µg/mL (≈ 0.277 µM); MIC [11]: ≤ 0.06 µg/mL; MIC (Entercoccus faecium 180): 1 µg/mL (≈ 0.553 µM); MIC (Entercoccus faecium 2041): 0.5 µg/mL (≈ 0.277 µM); MIC [12]: 1 µg/mL (≈ 0.553 µM); MIC [13]: 2 µg/mL (≈ 1.11 µM); MIC [14]: 8 µg/mL (≈ 4.43 µM); MIC [18]: 4 µg/mL (≈ 2.21 µM); MIC [15]: ≤ 0.06 µg/mL; mean geometric MIC, Vancomycin Sensitive Strains [17]: 0.67 µg/mL

Q: Which MIC [1] does the source give for `CNC(CC(C)C)C(=O)NC1C(=O)NC(CC(N)=O)C(=O)NC2C(=O)NC3C(=O)NC(C(=O)NC(C(=O)O)c4cc(O)cc(O)c4-c4cc3ccc4O)C(OC3CC(C)(N)C(O)C(C)O3)c3ccc(c(Cl)c3)Oc3cc2cc(c3OC2OC(CO)C(O)C(O)C2OC2CC(C)(NCc3ccc(Oc4ccccc4Cl)c([N+](=O)[O-])c3)C(O)C(C)O2)Oc2ccc(cc2Cl)C1O` (centres unmarked) [Compound 88] here?
A: 1 µg/mL (≈ 0.539 µM)

Q: And the MIC [2]?
A: 1 µg/mL (≈ 0.539 µM)

Q: And the MIC [3]?
A: ≤ 0.06 µg/mL

Q: What about the MIC (Entercoccus faecium 276) of the same molecule?
A: ≤ 0.06 µg/mL

Q: What about the MIC [6] of the same molecule?
A: 0.5 µg/mL (≈ 0.27 µM)

Q: What about the MIC [7] of the same molecule?
A: 0.5 µg/mL (≈ 0.27 µM)

Q: And the MIC [8]?
A: ≤ 0.06 µg/mL

Q: What about the MIC [9] of the same molecule?
A: 1 µg/mL (≈ 0.539 µM)

Q: What about the MIC [10] of the same molecule?
A: ≤ 0.06 µg/mL

Q: And the MIC [19]?
A: 0.5 µg/mL (≈ 0.27 µM)

Q: What about the MIC [11] of the same molecule?
A: ≤ 0.06 µg/mL

Q: And the MIC (Entercoccus faecium 180)?
A: 0.125 µg/mL (≈ 0.0674 µM)

Q: What about the MIC (Entercoccus faecium 2041) of the same molecule?
A: ≤ 0.06 µg/mL

Q: And the MIC [12]?
A: ≤ 0.06 µg/mL

Q: And the MIC [13]?
A: 1 µg/mL (≈ 0.539 µM)

Q: And the MIC [14]?
A: 1 µg/mL (≈ 0.539 µM)

Q: What about the MIC [18] of the same molecule?
A: 2 µg/mL (≈ 1.08 µM)

Q: And the MIC [15]?
A: ≤ 0.06 µg/mL

Q: And the “mean geometric MIC, Vancomycin Resistant Strains” value [16]?
A: 1.7 µg/mL

Q: And the “mean geometric MIC, Vancomycin Sensitive Strains” value [17]?
A: 0.055 µg/mL

Q: With `CN[C@H](CC(C)C)C(=O)N[C@H]1C(=O)N[C@@H](CC(N)=O)C(=O)N[C@H]2C(=O)N[C@H]3C(=O)N[C@H](C(=O)N[C@H](C(=O)O)c4cc(O)cc(O)c4-c4cc3ccc4O)[C@H](O[C@H]3C[C@](C)(N)[C@@H](O)[C@H](C)O3)c3ccc(c(Cl)c3)Oc3cc2cc(c3O[C@@H]2O[C@H](CO)[C@@H](O)[C@H](O)[C@H]2O[C@H]2C[C@](C)(NCc3ccc(-c4cccc(F)c4)cc3)[C@@H](O)[C@H](C)O2)Oc2ccc(cc2Cl)[C@H]1O` [Compound 92] as the molecule, how does the MIC [1] read?
A: 0.125 µg/mL (≈ 0.0704 µM)

Q: And the MIC [2]?
A: 0.5 µg/mL (≈ 0.281 µM)

Q: And the MIC [3]?
A: ≤ 0.06 µg/mL

Q: And the MIC (Entercoccus faecium 276)?
A: 0.125 µg/mL (≈ 0.0704 µM)

Q: And the MIC [4]?
A: 2 µg/mL (≈ 1.13 µM)

Q: What about the MIC [5] of the same molecule?
A: 0.5 µg/mL (≈ 0.281 µM)

Q: What about the MIC [6] of the same molecule?
A: ≤ 0.06 µg/mL

Q: And the MIC [7]?
A: 1 µg/mL (≈ 0.563 µM)

Q: And the MIC [8]?
A: ≤ 0.06 µg/mL

Q: What about the MIC [9] of the same molecule?
A: 1 µg/mL (≈ 0.563 µM)

Q: And the MIC [10]?
A: 0.5 µg/mL (≈ 0.281 µM)

Q: And the MIC [11]?
A: ≤ 0.06 µg/mL

Q: What about the MIC (Entercoccus faecium 180) of the same molecule?
A: 0.125 µg/mL (≈ 0.0704 µM)

Q: And the MIC (Entercoccus faecium 2041)?
A: 0.125 µg/mL (≈ 0.0704 µM)

Q: And the MIC [12]?
A: 2 µg/mL (≈ 1.13 µM)

Q: What about the MIC [13] of the same molecule?
A: 1 µg/mL (≈ 0.563 µM)

Q: What about the MIC [14] of the same molecule?
A: 2 µg/mL (≈ 1.13 µM)

Q: What about the MIC [18] of the same molecule?
A: 2 µg/mL (≈ 1.13 µM)

Q: And the MIC [15]?
A: ≤ 0.06 µg/mL

Q: And the “mean geometric MIC, Vancomycin Resistant Strains” value [16]?
A: 1.7 µg/mL

Q: What about the “mean geometric MIC, Vancomycin Sensitive Strains” value [17] of the same molecule?
A: 0.082 µg/mL
